The record followed here is patent EP4603105A1, “PHARMACEUTICAL COMPOSITION CONTAINING CYCLIC COMPOUND HAVING SELECTIVE KRAS INHIBITORY EFFECT AGAINST HRAS AND NRAS” (CHUGAI SEIYAKU KABUSHIKI KAISHA, priority 2022, dated 2024).

By IC50 is commonly meant the concentration that inhibits the measured activity by half. The low end stands for inhibition by little substance, the high end for a need for much substance.

The target of experiment [1] is HRAS wild-type protein (Homo sapiens, UniProt P01112). As to the kind of experiment: Binding to HRAS by surface plasmon resonance (SPR), KD and KD ratio to KRAS. As to conditions: ratio of KD value for HRAS wild-type protein to KD value for KRAS (SPR). In a few lines:
(§1)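 Measured at 30°C: SPR with GDP-loaded, E. coli-expressed biotin-Avi RAS captured (~100–300 RU), ascending 75 s compound injections, HBS pH 7.4 with GDP, MgCl2, 4% DMSO. KD from 1:1 fit.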
Background: Surface plasmon resonance follows binding to a sensor surface in real time, without labels.

Experiment [2] concerns the target GDP-bound NRAS wild-type protein (Homo sapiens, UniProt P01111). In words: Binding to NRAS by surface plasmon resonance (SPR), KD and KD ratio to KRAS. Particulars: ratio of KD value for GDP-bound NRAS wild-type protein to KD value for KRAS (SPR). The procedure, abridged: as §1
The subject of experiment [3] is human lung cancer strain NCI-H441. In kind it is cell-based. In a few lines:
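Signal came from […] measured per well once the reagent was added. Beforehand, cells were cultured at 37°C and 5% carbon dioxide on a compound series serially diluted in dimethyl sulfoxide.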

Chain of GDP-bound NRAS wild-type protein (P01111 whole entry): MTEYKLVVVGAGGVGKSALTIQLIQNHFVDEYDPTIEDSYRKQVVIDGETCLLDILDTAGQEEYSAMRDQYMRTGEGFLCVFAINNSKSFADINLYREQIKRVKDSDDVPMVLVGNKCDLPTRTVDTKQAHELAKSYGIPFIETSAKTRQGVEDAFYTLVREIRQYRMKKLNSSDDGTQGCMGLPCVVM
Chain of HRAS wild-type protein (P01112 whole entry): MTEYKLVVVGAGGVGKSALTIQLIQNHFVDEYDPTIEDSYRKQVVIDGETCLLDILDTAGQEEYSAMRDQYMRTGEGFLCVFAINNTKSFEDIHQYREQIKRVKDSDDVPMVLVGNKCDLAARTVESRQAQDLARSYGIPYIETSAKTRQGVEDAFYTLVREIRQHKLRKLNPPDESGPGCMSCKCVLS

As to `CC[C@H](C)[C@@H]1NC(=O)[C@H](CC)N(C)C(=O)C[C@@H](C(=O)N(C)C)N(C)C(=O)[C@H](C2CCCC2)N(C)C(=O)C2(CCC2)N(C)C(=O)[C@@H]2CCCN2C(=O)[C@H](CCc2cc(F)c(C(F)(F)F)c(F)c2)NC(=O)CN(C)C(=O)[C@H](Cc2ccc(C)cc2)N2CC/C=C\C[C@@H](C2=O)N(C)C(=O)[C@@H]2CCCN2C1=O` [PP1786], the “HRAS /KRAS” value in experiment [1] was “B (a compound having 3 or more and less than 10 is denoted as B)”. In addition, the “NRAS /KRAS” value in experiment [2] was “A (a compound having 10 or more and less than 20 is denoted as A)”. The molecule further gave an IC50 in experiment [3] of 11.4 nM.

For the molecule `CC[C@H](C)[C@@H]1NC(=O)[C@H](CC)N(C)C(=O)C[C@@H](C(=O)N(C)C)N(C)C(=O)[C@H](C2CCCC2)N(C)C(=O)C2(CCC2)N(C)C(=O)[C@@H]2C[C@@H](C)CN2C(=O)[C@H](CCc2cc(F)c(C(F)(F)F)c(F)c2)NC(=O)CN(C)C(=O)[C@H](Cc2ccc(C)cc2)N2CC/C=C\C[C@@H](C2=O)N(C)C(=O)[C@@H]2CCCN2C1=O` [PP1789], in experiment [1], the “HRAS /KRAS” value is “A (a compound having 10 or more and less than 20 is denoted as A)”. Further, the “NRAS /KRAS” value in experiment [2] is “A (a compound having 10 or more and less than 20 is denoted as A)”. The molecule further yielded an IC50 in experiment [3] of 9.5 nM.

With `CCO[C@@H]1C[C@H]2C(=O)N(C)C3(CCC3)C(=O)N(C)[C@@H](C3CCCC3)C(=O)N(C)[C@H](C(=O)N(C)C)CC(=O)N(C)[C@@H](CC(C)C)C(=O)N[C@@H]([C@@H](C)CC)C(=O)N(C)CC(=O)N(C)[C@H]3C/C=C\CCN(C3=O)[C@@H](Cc3ccc(C)cc3)C(=O)N(C)CC(=O)N[C@@H](CCc3cc(F)c(C(F)(F)F)c(F)c3)C(=O)N2C1` [PP1790], the “HRAS /KRAS” value in experiment [1] was “B (a compound having 3 or more and less than 10 is denoted as B)”. Besides, in experiment [2], the “NRAS /KRAS” value was “A (a compound having 10 or more and less than 20 is denoted as A)”. In addition, in experiment [3], the IC50 stood at 1.7 nM.

Take `CCC[C@H]1C(=O)N[C@@H]([C@@H](C)CC)C(=O)N(C)CC(=O)N(C)[C@H]2C/C=C\CCN(C2=O)[C@@H](Cc2ccc(C)cc2)C(=O)N(C)CC(=O)N[C@@H](CCc2cc(F)c(C(F)(F)F)c(F)c2)C(=O)N2C[C@H](OCC)C[C@H]2C(=O)N(C)C2(CCC2)C(=O)N(C)[C@@H](C2CCCC2)C(=O)N(C)[C@H](C(=O)N(C)C)CC(=O)N1C` [PP1793]: in experiment [1], the “HRAS /KRAS” value was “B (a compound having 3 or more and less than 10 is denoted as B)”. Also, in experiment [2], the “NRAS /KRAS” value is “A (a compound having 10 or more and less than 20 is denoted as A)”. The same molecule displayed an IC50 in experiment [3] of 2.4 nM.

Regarding `CCO[C@@H]1C[C@H]2C(=O)N(C)C3(CCC3)C(=O)N(C)[C@@H](C3CCCC3)C(=O)N(C)[C@H](C(=O)N(C)C)CC(=O)N(C)[C@@H](CC3CC3)C(=O)N[C@@H]([C@@H](C)CC)C(=O)N3CCC[C@H]3C(=O)N(C)[C@H]3C/C=C\CCN(C3=O)[C@@H](Cc3ccc(C)cc3)C(=O)N(C)CC(=O)N[C@@H](CCc3cc(F)c(C(F)(F)F)c(F)c3)C(=O)N2C1` [PP1797], the “HRAS /KRAS” value in experiment [1] is “A (a compound having 10 or more and less than 20 is denoted as A)”. Further, the “NRAS /KRAS” value in experiment [2] was “A (a compound having 10 or more and less than 20 is denoted as A)”. Besides, the IC50 in experiment [3] is 5.1 nM.

Take `CC[C@H](C)[C@@H]1NC(=O)[C@H](CC2CC2)N(C)C(=O)C[C@@H](C(=O)N(C)C)N(C)C(=O)[C@H](C2CCCC2)N(C)C(=O)C2(CCC2)N(C)C(=O)[C@@H]2CCCN2C(=O)[C@H](CCc2cc(F)c(C(F)(F)F)c(F)c2)NC(=O)CN(C)C(=O)[C@H](Cc2ccc(C)cc2)N2CC/C=C\C[C@@H](C2=O)N(C)C(=O)[C@@H]2CCCN2C1=O` [PP1798]: in experiment [1], the “HRAS /KRAS” value was “B (a compound having 3 or more and less than 10 is denoted as B)”. Besides, in experiment [2], the “NRAS /KRAS” value is “A (a compound having 10 or more and less than 20 is denoted as A)”. This molecule showed an IC50 in experiment [3] of 7.8 nM.

For the molecule `CCC[C@H]1C(=O)N[C@@H]([C@@H](C)CC)C(=O)N(C)CC(=O)N(C)[C@H]2C/C=C\CCN(C2=O)[C@@H](Cc2ccc(C)cc2)C(=O)N(C)CC(=O)N[C@@H](CCc2cc(F)c(C(F)(F)F)c(F)c2)C(=O)N2C[C@H](C)C[C@H]2C(=O)N(C)C2(CCC2)C(=O)N(C)[C@@H](C2CCCC2)C(=O)N(C)[C@H](C(=O)N(C)C)CC(=O)N1C` [PP1799], the “HRAS /KRAS” value in experiment [1] was “B (a compound having 3 or more and less than 10 is denoted as B)”. Moreover, the “NRAS /KRAS” value in experiment [2] is “B (a compound having 3 or more and less than 10 is denoted as B)”. The molecule further returned an IC50 in experiment [3] of 7.6 nM.

As to `CC[C@H](C)[C@@H]1NC(=O)[C@H](CC2CCC2)N(C)C(=O)C[C@@H](C(=O)N(C)C)N(C)C(=O)[C@H](C2CCCC2)N(C)C(=O)C2(CCC2)N(C)C(=O)[C@@H]2CCCN2C(=O)[C@H](CCc2cc(F)c(C(F)(F)F)c(F)c2)NC(=O)CN(C)C(=O)[C@H](Cc2ccc(C)cc2)N2CC/C=C\C[C@@H](C2=O)N(C)C(=O)CN(C)C1=O` [PP1802], in experiment [1], the “HRAS /KRAS” value was “B (a compound having 3 or more and less than 10 is denoted as B)”. For the same molecule, in experiment [2], the “NRAS /KRAS” value is “A (a compound having 10 or more and less than 20 is denoted as A)”. This molecule also had an IC50 in experiment [3] of 5.8 nM.

On to `CCO[C@@H]1C[C@H]2C(=O)N(C)C3(CCCC3)C(=O)N(C)[C@@H](C3CCCC3)C(=O)N(C)[C@H](C(=O)N(C)C)CC(=O)N(C)[C@@H](CC)C(=O)N[C@@H]([C@@H](C)CC)C(=O)N(C)CC(=O)N(C)[C@H]3C/C=C\CCN(C3=O)[C@@H](Cc3ccc(C(F)(F)F)cc3)C(=O)N(C)CC(=O)N[C@@H](CCc3cc(F)c(C(F)(F)F)c(F)c3)C(=O)N2C1` [PP1804], for which, in experiment [1], the “HRAS /KRAS” value was “A (a compound having 10 or more and less than 20 is denoted as A)”. Also, the “NRAS /KRAS” value in experiment [2] is “A (a compound having 10 or more and less than 20 is denoted as A)”. The IC50 in experiment [3] was 3.5 nM.

For `CC[C@H](C)[C@@H]1NC(=O)[C@H](CC)N(C)C(=O)C[C@@H](C(=O)N(C)C)N(C)C(=O)[C@H](C2CCCC2)N(C)C(=O)C2(CCCC2)N(C)C(=O)[C@@H]2CCCN2C(=O)[C@H](CCc2cc(F)c(C(F)(F)F)c(F)c2)NC(=O)CN(C)C(=O)[C@H](Cc2ccc(C(F)(F)F)cc2)N2CC/C=C\C[C@@H](C2=O)N(C)C(=O)CN(C)C1=O` [PP1805], the “HRAS /KRAS” value in experiment [1] is “A (a compound having 10 or more and less than 20 is denoted as A)”. Further, the “NRAS /KRAS” value in experiment [2] was “A (a compound having 10 or more and less than 20 is denoted as A)”. Besides, the IC50 in experiment [3] worked out at 7 nM.

In the case of `CCO[C@@H]1C[C@H]2C(=O)N(C)C3(CCCC3)C(=O)N(C)[C@@H](C3CCCC3)C(=O)N(C)[C@H](C(=O)N(C)C)CC(=O)N(C)[C@@H](CC)C(=O)N[C@@H]([C@@H](C)CC)C(=O)N(C)CC(=O)N(C)[C@H]3C/C=C\CCN(C3=O)[C@@H](Cc3ccc(C)cc3)C(=O)N(C)CC(=O)N[C@@H](CCc3cc(F)c(C(F)(F)F)c(F)c3)C(=O)N2C1` [PP1806], the “HRAS /KRAS” value in experiment [1] was “B (a compound having 3 or more and less than 10 is denoted as B)”. For the same molecule, in experiment [2], the “NRAS /KRAS” value is “A (a compound having 10 or more and less than 20 is denoted as A)”. This molecule displayed an IC50 in experiment [3] of 4 nM.

In the case of `CC[C@H](C)[C@@H]1NC(=O)[C@H](CC)N(C)C(=O)C[C@@H](C(=O)N(C)C)N(C)C(=O)[C@H](C2CCCC2)N(C)C(=O)C2(CCCC2)N(C)C(=O)[C@@H]2CCCN2C(=O)[C@H](CCc2cc(F)c(C(F)(F)F)c(F)c2)NC(=O)CN(C)C(=O)[C@H](Cc2ccc(C)cc2)N2CC/C=C\C[C@@H](C2=O)N(C)C(=O)CN(C)C1=O` [PP1807], the “HRAS /KRAS” value in experiment [1] was “B (a compound having 3 or more and less than 10 is denoted as B)”. Besides, the “NRAS /KRAS” value in experiment [2] was “A (a compound having 10 or more and less than 20 is denoted as A)”. It took 5 nM to reach half-maximal inhibition in experiment [3] (IC50).

Turning to `CCO[C@@H]1C[C@H]2C(=O)N(C)C3(CCCC3)C(=O)N(C)[C@@H](C3CCCC3)C(=O)N(C)[C@H](C(=O)N(C)C)CC(=O)N(C)[C@@H](C3CC3)C(=O)N[C@@H]([C@@H](C)CC)C(=O)N(C)CC(=O)N(C)[C@H]3C/C=C\CCN(C3=O)[C@@H](Cc3ccc(C)cc3)C(=O)N(C)CC(=O)N[C@@H](CCc3cc(F)c(C(F)(F)F)c(F)c3)C(=O)N2C1` [PP1808], in experiment [1], the “HRAS /KRAS” value is “B (a compound having 3 or more and less than 10 is denoted as B)”. Besides, the “NRAS /KRAS” value in experiment [2] is “A (a compound having 10 or more and less than 20 is denoted as A)”. Also, in experiment [3], half-maximal inhibition (IC50) required 8.8 nM.

As to `CCO[C@@H]1C[C@H]2C(=O)N(C)C3(CCCC3)C(=O)N(C)[C@@H](C3CCCC3)C(=O)N(C)[C@H](C(=O)N(C)C)CC(=O)N(C)[C@@H](CC)C(=O)N[C@@H]([C@@H](C)CC)C(=O)N3CCC[C@H]3C(=O)N(C)[C@H]3C/C=C\CCN(C3=O)[C@@H](Cc3ccc(C)cc3)C(=O)N(C)CC(=O)N[C@@H](CCc3cc(F)c(C(F)(F)F)c(F)c3)C(=O)N2C1` [PP1810], the “HRAS /KRAS” value in experiment [1] was “B (a compound having 3 or more and less than 10 is denoted as B)”. Further, the “NRAS /KRAS” value in experiment [2] was “A (a compound having 10 or more and less than 20 is denoted as A)”. This molecule showed an IC50 in experiment [3] of 4.6 nM.

Take `CC[C@H](C)[C@@H]1NC(=O)[C@H](CC)N(C)C(=O)C[C@@H](C(=O)N(C)C)N(C)C(=O)[C@H](C2CCCC2)N(C)C(=O)C2(CCCC2)N(C)C(=O)[C@@H]2CCCN2C(=O)[C@H](CCc2cc(F)c(C(F)(F)F)c(F)c2)NC(=O)CN(C)C(=O)[C@H](Cc2ccc(C)cc2)N2CC/C=C\C[C@@H](C2=O)N(C)C(=O)[C@@H]2CCCN2C1=O` [PP1811]: in experiment [1], the “HRAS /KRAS” value was “B (a compound having 3 or more and less than 10 is denoted as B)”. Also, the “NRAS /KRAS” value in experiment [2] is “A (a compound having 10 or more and less than 20 is denoted as A)”. Besides, the IC50 in experiment [3] amounted to 14.3 nM.
